In PMC4376459, “CXCR3 antagonist VUF10085 binds to an intrahelical site distinct from that of the broad spectrum antagonist TAK-779” (British Journal of Pharmacology, 2015):
Where a chain is given by its changes, count along the chain named.

Experiments:
CXCR3 Y308A [1] = biological target: T1, CXCR3 Y308A (Homo sapiens, UniProt P49682, Y308A); experiment: Chemotaxis assay, L1.2 transfectants migrating to CXCL11; type: cell-based; conditions: 30 nM CXCL11
T1 construct: expressed in transfected cells; host or cells: murine pre-B cell line L1.2, transient transfection
T1 sequence (P49682 1-368 Y308A): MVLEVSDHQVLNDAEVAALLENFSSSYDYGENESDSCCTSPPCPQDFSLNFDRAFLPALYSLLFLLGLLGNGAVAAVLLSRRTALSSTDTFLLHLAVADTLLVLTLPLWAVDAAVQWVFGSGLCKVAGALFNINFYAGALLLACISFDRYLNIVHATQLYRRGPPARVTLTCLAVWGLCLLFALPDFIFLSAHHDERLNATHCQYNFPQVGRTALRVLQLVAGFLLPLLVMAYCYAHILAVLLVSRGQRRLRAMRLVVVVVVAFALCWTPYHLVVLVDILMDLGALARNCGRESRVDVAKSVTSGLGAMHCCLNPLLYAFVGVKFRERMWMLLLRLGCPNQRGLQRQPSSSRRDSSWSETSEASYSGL

D112N-CXCR3 = biological target: T2, D112N-CXCR3 (Homo sapiens, UniProt P49682, D112N); experiment: Whole-cell 125I-CXCL11 binding assay, L1.2 transfectants; conditions: D112N-CXCR3 transfectants (Figure 1); read-out: IC50 for displacement of 125I-CXCL11
T2 construct: expressed in transfected cells; host or cells: murine pre-B cell line L1.2, transient transfection
T2 sequence (P49682 1-368 D112N): T1 sequence (P49682 1-368 Y308A) with D112N, A308Y

CXCR3 F131A = biological target: T3, CXCR3 F131A (Homo sapiens, UniProt P49682, F131A); experiment: as above; conditions: 0.1 nM 125I-CXCL11, read-out: IC50 ligand binding (mean ± SEM)
T3 construct: expressed in transfected cells; host or cells: murine pre-B cell line L1.2, transient transfection
T3 sequence (P49682 1-368 F131A): T1 sequence (P49682 1-368 Y308A) with F131A, A308Y

CXCR3 I279A = biological target: T4, CXCR3 I279A (Homo sapiens, UniProt P49682, I279A); experiment: as above; conditions: I279A, 0.1 nM 125I-CXCL11; read-out: IC50 ligand binding (mean ± SEM)
T4 construct: expressed in transfected cells; host or cells: murine pre-B cell line L1.2, transient transfection
T4 sequence (P49682 1-368 I279A): T1 sequence (P49682 1-368 Y308A) with I279A, A308Y

CXCR3 Y308A [2] = biological target: T1, CXCR3 Y308A; experiment: as above

Q: For `Cc1ccc(-c2ccc3c(c2)C=C(C(=O)Nc2ccc(C[N+](C)(C)C4CCOCC4)cc2)CCC3)cc1.[Cl-]` [TAK-779, N,N-dimethyl-N-[4-[[[2-(4-methylphenyl)-6,7-dihydro-5H-benzocyclohepten-8-yl]-carbonyl]amino]benzyl] tetrahydro-2H-pyran-4-aminium chloride], which “increase in IC50 value, chemotaxis” value (CXCR3 Y308A [1]; Y308A versus WT) is on record?
A: twofold

Q: And the IC50 (CXCR3 Y308A [1]; Y308A, read-out: IC50 chemotaxis (mean ± SEM))?
A: 41.4 ± 22.6 µM

Q: What about the IC50 (D112N-CXCR3) of the same compound?
A: 17.2 µM

Q: And the IC50 (CXCR3 F131A)?
A: 23.3 ± 6.57 µM

Q: And the IC50 (CXCR3 I279A)?
A: 39.4 ± 15 µM

Q: And the “reduction in IC50 value, ligand binding” value (CXCR3 Y308A [2]; Y308A relative to WT)?
A: twofold

Q: What about the IC50 (CXCR3 Y308A [2]; Y308A, 0.1 nM 125I-CXCL11, read-out: IC50 ligand binding (mean ± SEM)) of the same compound?
A: 14.2 ± 3 µM
